Source: ChEMBL document CHEMBL1201862, “PubChem BioAssay data set” (2004)
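The compound was tested at five concentrations on cells cultured in 96-well plates, with a 48-hour exposure period. Abbreviation: GI50, concentration required for 50% inhibition of growth.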 The source made the active and inactive calls. Cut-off read from the data, not from the text of the source: active = GI50 up to about 1.1 µM and inactive = higher.

How the values were obtained:
Experiment in all cases: growth of human tumour cells (NCI), 48 h
T47D = system: T47D
M19-MEL = system: M19-MEL
XF498 = system: XF498
DMS-273 = system: DMS-273
DLD-1 = system: DLD-1
DMS-114 = system: DMS-114
KM-20L2 = system: KM-20L2
HOP-18 = system: HOP-18

Cn1c(=O)c2[nH]c(CCC(=O)O)nc2n(C)c1=O
GI50 (T47D): > 100 µM (inactive)

c1cc(CNCCN2CCNCC2)ccn1
GI50 (T47D): > 100 µM (inactive)

c1cncc(-c2cc(-c3cc(-c4cccnc4)[nH]n3)n[nH]2)c1
GI50 (T47D): > 100 µM (inactive)

O=C(O)c1ccccc1NC(c1ccccc1)c1ccc2cccnc2c1O (stereo unspecified)
GI50 (T47D): 11.3 µM (inactive)

COC(=O)c1ccc(C)cc1C1CN=NC12Cc1cc(C)ccc1C2=O (stereo unspecified)
GI50 (T47D): 20.8 µM (inactive)

CC1S/C(=N\N=C2/C(=O)Nc3ccc(Br)cc32)N(C2CCCCC2)C1=O (stereo unspecified)
GI50 (T47D): 3.96 µM (inactive)

CC(=O)NCCCCN(CCCNC(C)=O)C(=O)CNS(=O)(=O)c1cccc2c(N(C)C)cccc12
GI50 (T47D): > 100 µM (inactive)

Cc1csc(=S)n1OC(=O)NC1CCCCC1
GI50 (M19-MEL): 16.5 µM (inactive) | GI50 (XF498): > 100 µM (inactive) | GI50 (DMS-273): > 49.4 µM (inactive) | GI50 (DLD-1): 55.5 µM (inactive) | GI50 (DMS-114): 12.3 µM (inactive)

CO[C@@]12C[C@H](CNC(=O)c3ccc[nH]3)O[C@@H]1NC(=O)N2
GI50 (T47D): > 100 µM (inactive)

CC1=CC(c2ccccc2)n2c(nc3cc4ccccc4cc32)N1 (stereo unspecified)
GI50 (T47D): > 100 µM (inactive)

COC(=O)c1sc(=O)sc1SCc1cccc(CSc2sc(=O)sc2C(=O)OC)c1
GI50 (T47D): 38.9 µM (inactive)

C[C@@H](Cl)[C@H]1CCCN(Cc2ccc(Br)cc2)C1
GI50 (T47D): > 12.5 µM (inactive)

O=[N+]([O-])c1ccc(CN(CCCl)OCCCl)cc1
GI50 (T47D): 74.5 µM (inactive)

Clc1ccc(/N=C/C=C/Nc2ccc(Cl)cn2)nc1
GI50 (T47D): 18.3 µM (inactive)

Cc1ccc(C)n2c1nc1ccc3ccccc3c12
GI50 (T47D): 45 µM (inactive)

BrC1=C(Br)C2(SCCS2)[C@H]2C[C@@H]1c1ccccc12
GI50 (T47D): 24.6 µM (inactive)

Nc1c2ccccc2nc2c1ccc1ncccc12
GI50 (T47D): 27.5 µM (inactive)

CN1C(=O)N/C(=C\c2ccc(S(=O)(=O)N/N=C/c3ccccc3)cc2)C1=O
GI50 (T47D): 35.2 µM (inactive)

O=C(c1ccco1)N(C(=S)OCc1ccccn1)c1ccccc1
GI50 (T47D): 25.1 µM (inactive)

CC(C)=CC(=O)c1[nH]c2ccccc2c1CC(=O)NCCc1cncn1C
GI50 (T47D): 34.6 µM (inactive)

Cc1cc(S(=O)(=O)Nc2nc(N)nc(N3N=CCC3C)n2)c(S)cc1Cl (stereo unspecified)
GI50 (T47D): > 10 µM (inactive)

O=C(O)c1cc(Cl)cc2c1NC1(N2)C(=O)Nc2ccccc21 (stereo unspecified)
GI50 (T47D): > 100 µM (inactive)

CCCCCCCCCC(=O)CC(=O)c1ccc(O)cc1O
GI50 (KM-20L2): 38 µM (inactive) | GI50 (HOP-18): 20.1 µM (inactive) | GI50 (DMS-273): 28.2 µM (inactive) | GI50 (DLD-1): 28.5 µM (inactive)

COP1(=O)NCc2ncccc2O1 (stereo unspecified)
GI50 (T47D): > 100 µM (inactive)

CCOc1ccc(NC2=NC(=O)C(CC(=O)Nc3ccccc3[N+](=O)[O-])S2)cc1 (stereo unspecified)
GI50 (KM-20L2): > 100 µM (inactive) | GI50 (M19-MEL): > 100 µM (inactive) | GI50 (XF498): > 100 µM (inactive) | GI50 (DMS-273): > 100 µM (inactive) | GI50 (DLD-1): > 100 µM (inactive) | GI50 (DMS-114): > 100 µM (inactive)

CCNC1C2(CCCCC2)NC(=O)C12CCCCC2 (stereo unspecified)
GI50 (KM-20L2): > 100 µM (inactive) | GI50 (M19-MEL): > 100 µM (inactive) | GI50 (XF498): > 100 µM (inactive) | GI50 (DMS-273): > 100 µM (inactive) | GI50 (DLD-1): > 100 µM (inactive) | GI50 (DMS-114): > 100 µM (inactive)

CCC12C=CCN3CCC4(C(=C(C(=O)OC)C1)Nc1ccccc14)[C@H]32 (stereo partly specified)
GI50 (KM-20L2): 19.8 µM (inactive) | GI50 (M19-MEL): 31.3 µM (inactive) | GI50 (HOP-18): 26.5 µM (inactive) | GI50 (DMS-273): 17.9 µM (inactive) | GI50 (DLD-1): 40.4 µM (inactive) | GI50 (DMS-114): 19.2 µM (inactive)

CCOC(=O)c1ccc(OCc2nc3cc(C(F)(F)F)ccc3nc2-c2ccccc2)cc1
GI50 (T47D): > 100 µM (inactive)

C[C@H]1CCC/C=C/[C@@H]2C[C@H](OC(=O)CN(C)C)C[C@H]2[C@H](O)/C=C/C(=O)O1
GI50 (T47D): 0.329 µM (active)

OCC(O)COCn1nncc1Cn1ncc2c(SCc3ccccc3)ncnc21 (stereo unspecified)
GI50 (T47D): > 100 µM (inactive)

CCCCCCCCCCCCCCCCCCNC(=S)N/C=C1\C(=O)Nc2ccccc2C1=O
GI50 (T47D): 24.7 µM (inactive)

Nc1nc(N)c(-c2ccccc2)c(CCC(=O)Nc2ccc(Cl)cc2)n1
GI50 (KM-20L2): > 100 µM (inactive) | GI50 (M19-MEL): > 100 µM (inactive) | GI50 (HOP-18): > 100 µM (inactive) | GI50 (DMS-273): > 100 µM (inactive) | GI50 (DLD-1): > 100 µM (inactive)

COc1ccc(C(SC2C(O)C(CO)OC2n2ccc(N)nc2=O)(c2ccccc2)c2ccc(OC)cc2)cc1 (stereo unspecified)
GI50 (T47D): 19.1 µM (inactive)

C/C(=N/NC(=S)N(Cc1ccccn1)Cc1ccccn1)c1cnccn1
GI50 (T47D): 0.231 µM (active)

COC1=CCC=C(C[C@@H]2NCCc3cc(OC)c(OC)cc32)C1
GI50 (KM-20L2): > 100 µM (inactive) | GI50 (M19-MEL): > 100 µM (inactive) | GI50 (XF498): > 100 µM (inactive) | GI50 (DMS-273): > 100 µM (inactive) | GI50 (DLD-1): > 100 µM (inactive)

Cc1cc2c(cc1Cl)SC(c1ccccc1O)NS2(=O)=O (stereo unspecified)
GI50 (T47D): 6.95 µM (inactive)

O=C(NCCCl)N(O)C(=O)Nc1ccccc1
GI50 (T47D): > 100 µM (inactive)

COc1cccc2c1C(=O)c1c(O)c3c(c(O)c1C2=O)C[C@@](O)(C(C)=O)C[C@@H]3OC1CC(N(Cc2ccccc2)Cc2ccccc2)C(O)C(C)O1 (stereo partly specified)
GI50 (T47D): 11.9 µM (inactive) | GI50 (KM-20L2): 24.9 µM (inactive) | GI50 (M19-MEL): 23.2 µM (inactive) | GI50 (HOP-18): > 45.5 µM (inactive) | GI50 (DMS-273): 3.78 µM (inactive) | GI50 (DLD-1): 10.1 µM (inactive) | GI50 (DMS-114): 39.8 µM (inactive)

O=[N+]([O-])c1ccc(SN=S=NSc2cccc(SN=S=NSc3ccc([N+](=O)[O-])cc3)c2)cc1
GI50 (T47D): 11.1 µM (inactive)

O=C(O)c1cc(NC2=C(Cl)C(=O)c3c(O)ccc(O)c3C2=O)ccc1O
GI50 (T47D): > 10 µM (inactive)

Cc1cc(-c2nc3ccc(F)cc3s2)ccc1NC(=O)[C@H](C)N
GI50 (T47D): 0.0559 µM (active)

CC1(C)CC(=O)C2=C(C1)C(c1ccccc1Cl)C1C(=O)CC(C)(C)CC1(O)O2 (stereo unspecified)
GI50 (T47D): > 100 µM (inactive)

CC(C)[C@H](NC(=O)[C@@H](O)[C@H](N)Cc1ccccc1)C(=O)N[C@@H](Cc1ccccc1)C(=O)O
GI50 (T47D): > 100 µM (inactive)

O=C(NNc1cn[nH]c(=O)n1)c1cccc2nc3ccccc3nc12
GI50 (T47D): > 100 µM (inactive)

COc1ccccc1NC(=O)C(=O)Cc1cnc2ccccc2n1
GI50 (T47D): > 100 µM (inactive)

COc1cc(C(=O)N(C)N(C)C)cc(OC)c1OC
GI50 (T47D): > 10 µM (inactive)

CC(C)C(NC(=O)C(Cc1ccccc1)NC(=O)[C@H]1CCC[C@H]1NC(=O)C(N)Cc1ccc(O)cc1)C(N)=O (stereo partly specified)
GI50 (T47D): > 100 µM (inactive)

C[C@H]1CC[C@@H]2[C@@H](C)[C@H]3[C@H](C[C@H]4[C@@H]5CC=C6C[C@@H](O)CC[C@]6(C)[C@H]5C[C@H](O)[C@]34C)N2C1
GI50 (T47D): > 100 µM (inactive)

OCc1ccc(C2CC(c3ccco3)=NN2c2ccccc2)o1 (stereo unspecified)
GI50 (KM-20L2): > 100 µM (inactive) | GI50 (M19-MEL): > 100 µM (inactive) | GI50 (XF498): > 100 µM (inactive) | GI50 (DMS-273): > 100 µM (inactive) | GI50 (DMS-114): > 100 µM (inactive)

O=C1NC2(CCN(CCc3ccccc3)CC2)Oc2ccccc21
GI50 (T47D): 49.7 µM (inactive)

COc1cc(C(C#N)NNC(=O)c2ccccc2O)ccc1O (stereo unspecified)
GI50 (KM-20L2): 29.4 µM (inactive) | GI50 (M19-MEL): 3.58 µM (inactive) | GI50 (HOP-18): 4.91 µM (inactive) | GI50 (DLD-1): 4.22 µM (inactive)

Cc1c(O)c(O)cc[n+]1C1OC(CO)C(O)C1O (stereo unspecified)
GI50 (KM-20L2): > 100 µM (inactive) | GI50 (M19-MEL): > 100 µM (inactive) | GI50 (HOP-18): > 100 µM (inactive) | GI50 (DMS-273): > 100 µM (inactive) | GI50 (DLD-1): > 100 µM (inactive)

CO[C@H]1C[C@H](O[C@H]2CC[C@]3(C=O)[C@H]4CC[C@]5(C)[C@@H](C6=CC(=O)OC6)CC[C@]5(O)[C@@H]4CC[C@]3(O)C2)O[C@H](C)[C@H]1O[C@@H]1O[C@H](CO[C@@H]2O[C@H](CO)[C@@H](O)[C@H](O)[C@H]2O)[C@@H](O)[C@H](O)[C@H]1O
GI50 (T47D): 0.0527 µM (active)

c1cn[nH]c1 [PYRAZOLE]
GI50 (T47D): > 10 µM (inactive)
